Experimental data: patent publication US7312322B1, “Genetic sequences encoding steroid and juvenile hormone receptor polypeptides and insecticidal modalities therefor” (priority 1998, dated 2007)
Where “and” joins values, the source holds several entries; their conditions need not be identical. Equal entries are not always repeated.

How the values were obtained:
[1] = molecular target: T1, linker and ligand-binding regions of the L. cuprina EcR polypeptide and partner protein (USP polypeptide) (Lucilia cuprina, UniProt O18531); assay: [3H]ponasterone A binding assay in Sf9 and Sf21 cells infected by recombinant baculovirus (modified method of Yund et al); details: compared to the ecdysone holoreceptor in L. cuprina embryos; no specific binding with control virus (FIG. 3)
T1 construct: made in house; host or cells: recombinant baculovirus in insect Sf9 and Sf21 cells (extracts)
T1 sequence (O18531 366-757): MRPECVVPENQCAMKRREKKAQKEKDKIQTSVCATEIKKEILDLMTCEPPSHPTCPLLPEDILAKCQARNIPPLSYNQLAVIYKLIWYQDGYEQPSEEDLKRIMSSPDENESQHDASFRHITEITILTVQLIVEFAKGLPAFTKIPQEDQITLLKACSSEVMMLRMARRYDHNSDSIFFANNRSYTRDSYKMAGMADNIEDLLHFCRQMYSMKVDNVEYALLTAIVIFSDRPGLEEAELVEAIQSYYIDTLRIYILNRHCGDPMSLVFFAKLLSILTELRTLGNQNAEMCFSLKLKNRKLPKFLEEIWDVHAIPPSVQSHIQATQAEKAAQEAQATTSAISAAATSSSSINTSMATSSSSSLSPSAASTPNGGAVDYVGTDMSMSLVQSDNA
Source text: Control cells contained baculovirus expressing β-galactosidase and CAT only.
The segment of pLcEcR.USP.DUAL which encodes the tagged linker and ligand-binding regions of the EcR polypeptide and partner protein (USP polypeptide) sequences, placed operably under the control of polyhedrin and p10 promoters, respectively, was recombined into a baculovirus genome, by employing the Tn7 transposition system (Luckow et al, (1993). The polypeptide products were then co-expressed in insect Sf21 and Sf9 cells, where they associated into a functional complex.

[2] = molecular target: T2, EcR polypeptide subunit of the D. melanogaster ecdysone receptor (Drosophila melanogaster, UniProt P34021); assay: CHO cell co-transfection CAT reporter assay, pSV40-EcR with p(EcRE)7-CAT; format: cell-based; details: for Fold-induction of expression: 30° C., PNA 20 μM, CHO cells
T2 construct: expressed in transfected cells; host or cells: CHO cells
T2 sequence (P34021 1-878): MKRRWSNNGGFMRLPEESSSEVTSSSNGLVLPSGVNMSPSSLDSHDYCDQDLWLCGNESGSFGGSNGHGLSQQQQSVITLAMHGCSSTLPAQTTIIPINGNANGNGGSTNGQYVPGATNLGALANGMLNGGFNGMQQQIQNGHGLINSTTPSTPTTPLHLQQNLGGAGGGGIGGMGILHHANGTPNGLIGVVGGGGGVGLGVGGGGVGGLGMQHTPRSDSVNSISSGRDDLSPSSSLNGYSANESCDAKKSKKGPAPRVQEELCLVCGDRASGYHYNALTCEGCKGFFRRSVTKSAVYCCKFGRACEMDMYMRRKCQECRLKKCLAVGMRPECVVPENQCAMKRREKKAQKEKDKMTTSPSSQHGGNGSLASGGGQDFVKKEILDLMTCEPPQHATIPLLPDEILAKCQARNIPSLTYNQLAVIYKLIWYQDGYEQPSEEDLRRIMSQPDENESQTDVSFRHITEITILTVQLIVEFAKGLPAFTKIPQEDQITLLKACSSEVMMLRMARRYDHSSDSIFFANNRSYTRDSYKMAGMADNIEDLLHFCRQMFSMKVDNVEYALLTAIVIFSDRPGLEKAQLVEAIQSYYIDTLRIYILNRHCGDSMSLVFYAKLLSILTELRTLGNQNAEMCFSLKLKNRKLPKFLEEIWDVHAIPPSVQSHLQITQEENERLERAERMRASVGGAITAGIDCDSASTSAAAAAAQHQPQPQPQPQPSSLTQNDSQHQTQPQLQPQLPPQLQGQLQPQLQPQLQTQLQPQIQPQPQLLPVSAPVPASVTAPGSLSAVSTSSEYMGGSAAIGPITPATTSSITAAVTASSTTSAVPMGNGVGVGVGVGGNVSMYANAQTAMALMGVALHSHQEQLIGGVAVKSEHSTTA
Protocol: Chinese hamster ovary (CHO) cells were maintained in 50% (v/v) Dubbecco's modified Eagle's medium (DMEM) and 50% (v/v) Hamm F12 nutrient mixture (GIBCO) supplemented with 10% (v/v) foetal bovine serum. Transfection was carried out by the DNA-calcium phosphate co-precipitation method (Ausubel et al, 1992). One day before transfection with the plasmids described in Examples 1 and/or 2, or other expression plasmids, CHO cells were plated out at 5-8×10^5 cells per 6 cm diameter culture dish in the above DMEM/F12 medium. Three hours before the addition of the DNA-calcium phosphate co-precipitate, the cells were washed with phosphate buffered saline (PBS; Sambrook et al., 1989) and cultured in fresh DMEM plus 10% (v/v) foetal bovine serum. The cells were incubated in the presence of the co-precipitate for eighteen hours before excess DNA was removed by washing with PBS. The cells were then cultured for another day in DMEM/F12 supplemented with 10% (v/v) foetal bovine serum with or without added ponasterone A (PNA), before harvesting. Cells were washed with PBS, harvested by mechanical scraping in 0.25 M Tris-HCl (pH 7.8), and disrupted by three freeze-thaw cycles.
All transfections included, in addition to expression and reporter plasmids, a β-galactosidase-expressing plasmid designated pPgK-LacZ (McBurney et al, 1991), which served as an internal control for the efficiency of transfection, and pUC18 DNA in an amount sufficient to produce 10 μg total DNA per culture dish.
The chloramphenicol acetyltransferase (CAT) and β-galactosidase activities encoded by the reporter genes present in the reporter plasmids were assayed as described in Sambrook et al, (1989).
To determine whether the D. melanogaster ecdysone receptor polypeptide is stable at physiological temperatures above about 30° C., CHO cells were transfected as described in Example 3, with the plasmid pSV40-EcR and the reporter plasmid p(EcRE)7-CAT in the presence of PNA, at 30° C. and 37° C.
Briefly, CHO cells were plated out at 37° C. sixteen to twenty hours before transfection. After washing away the DNA, the cells were cultured for two hours in fresh medium with or without hormone and the dishes divided into duplicate sets. One set was cultured for another day at 37° C. before harvesting for CAT and β-galactosidase assays. The other set was cultured for three days at 30° C. before assaying enzyme activities. Results indicated a reduction in the fold-induction of gene expression regulated by the D. melanogaster ecdysone receptor polypeptide at 37° C., compared to the fold-induction at 30° C., as shown in Table 1.

Structure (SMILES): CC(C)CC[C@@H](O)[C@](C)(O)[C@H]1CC[C@@]2(O)C3=CC(=O)[C@@H]4C[C@@H](O)[C@@H](O)C[C@]4(C)[C@H]3CC[C@]12C [PNA, ponasterone A]
- binding of labelled ligand in cells infected by the recombinant baculovirus [1]: highly-significant increase in the binding
- Fold-induction of expression ([2]; pSV40-EcR 0.1 μg/dish): 39X and 25X
- Fold-induction of expression ([2]; pSV40-EcR 0.5 μg/dish): 26X and 33X
- Fold-induction of expression ([2]; pSV40-EcR 2.5 μg/dish): 35X and 54X
- induction of CAT activity ([2]; CHO cells co-transfected with p(EcRE)7-CAT and pSV40-EcR, in the presence of PNA): 50 units of activity
